Values quoted from earlier work as cited in patent US20240023548A1, “TAU-FLUVALINATE COMPOSITIONS” (Adama Makhteshim Ltd., priority 2020, published 2024).

CC(C)[C@@H](Nc1ccc(C(F)(F)F)cc1Cl)C(=O)OC(C#N)c1cccc(Oc2ccccc2)c1 (some centres unmarked) [Tau-fluvalinate, tau-fluvalinate]
Solubility in organic solvents (organic solvents): soluble in organic solvents | Solubility in water (water): low solubility in water
